# Experimental data: EPA's ToxRefDB 2
# Legend:
# [1] = test system: mouse; details: Carcinogenicity; cd1; Oral; [Not Specified]; dose end: 24 month; group: systemic; systemic / in life observation / body weight / body weight gain
# [2] = test system: rat; details: Subchronic oral toxicity in rodents, sprague dawley, Feed, dose end: 95 day, group: systemic
# [3] = test system: rat; details: Chronic toxicity; sprague dawley; Oral; Feed; dose end: 104 week; group: systemic; systemic / in life observation / body weight / body weight + systemic / in life observation / body weight / body weight gain + systemic / …
# [4] = test system: dog; details: Chronic toxicity, beagle, Oral, Feed, dose end: 52 week, group: systemic
# [5] = test system: rat; details: Carcinogenicity, sprague dawley, Oral, Feed, dose end: 104 week, group: systemic
# [6] = test system: dog; details: Subchronic oral toxicity in nonrodent, beagle, Feed, dose end: 13 week, group: systemic, systemic / clinical chemistry / alkaline phosphatase (alp/alk) / alkaline phosphatase (alp/alk) + systemic / organ weight / prostate / …
# [7] = test system: rat; details: Subchronic oral toxicity in rodents, fischer, Feed, dose end: 13 week, group: systemic
# [8] = test system: dog; details: Chronic toxicity, beagle, Oral, Capsule, dose end: 52 week, group: systemic
# [9] = test system: mouse; details: Carcinogenicity, b6c3f1, Oral, [Not Specified], dose end: 104 week, group: systemic
# [10] = test system: rat; details: Combined chronic toxicity/carcinogenicity; fischer; Oral; Feed; dose end: 104 week; group: systemic; systemic / in life observation / clinical signs / body cold to touch + systemic / in life observation / clinical signs / emaciation + …
# [11] = test system: dog; details: Subchronic oral toxicity in nonrodent, beagle, Capsule, dose end: 13 week, group: systemic, systemic / in life observation / clinical signs / salivation + systemic / pathology microscopic / liver / proliferation
# [12] = test system: mouse; details: Subchronic oral toxicity in rodents, b6c3f1, Feed, dose end: 13 week, group: systemic
# [13] = test system: rat; details: Multigenerational reproductive toxicity study, other, Oral, Feed, dose end: 2 generation
# [14] = test system: rat; details: Multigenerational reproductive toxicity study, wistar, Oral, Feed, dose end: 2 generation
# [15] = test system: dog; details: Subchronic oral toxicity in nonrodent, beagle, Feed, dose end: 6 month, group: cholinesterase, cholinesterase / cholinesterase / cholinesterase / erythrocyte cholinesterase (che) + cholinesterase / cholinesterase / cholinesterase / …
# [16] = test system: rat; details: Combined chronic toxicity/carcinogenicity, sprague dawley, Oral, Feed, dose end: 24 month
# [17] = test system: mouse; details: Combined chronic toxicity/carcinogenicity, cd1, Oral, Feed, dose end: 91 week
# [18] = test system: dog; details: Chronic toxicity, beagle, Oral, Feed, dose end: 52 week
# [19] = test system: mouse; details: Subchronic oral toxicity in rodents, cd1, Feed, dose end: 8 week
# [20] = test system: rabbit; details: Subchronic dermal toxicity, new zealand white, Topical, dose end: 13 week, group: systemic, systemic / in life observation / clinical signs / desquamation + systemic / in life observation / clinical signs / erythema + systemic / in …
# [21] = systemic / pathology microscopic / liver / vacuolization
# [22] = systemic / pathology microscopic / liver / vacuolization + systemic / hematology / erythrocyte (rbc) count differential / erythrocyte (rbc…
# [23] = systemic / organ weight / prostate / absolute + systemic / organ weight / prostate / relative to body weight + systemic / clinical chemistry…
# [24] = systemic / in life observation / body weight / body weight + systemic / in life observation / body weight / body weight gain
# [25] = systemic / in life observation / body weight / body weight + systemic / in life observation / body weight / body weight gain + systemic / in…
# [26] = systemic / clinical chemistry / alkaline phosphatase (alp/alk) / alkaline phosphatase (alp/alk) + systemic / clinical chemistry / gamma …
# [27] = systemic / clinical chemistry / cholesterol / cholesterol
# [28] = systemic / pathology microscopic / liver / [other] + systemic / pathology microscopic / liver / hyperplasia
# [29] = systemic / pathology microscopic / liver / [other] + systemic / pathology microscopic / liver / hyperplasia + systemic / in life observation…
# [30] = systemic / pathology microscopic / liver / hematopoietic cell proliferation granulocytic + systemic / pathology gross / liver / accentuated …
# [31] = systemic / pathology microscopic / liver / [other]
# [32] = systemic / pathology microscopic / liver / [other] + systemic / in life observation / body weight / body weight + systemic / in life …
# [33] = group: offspring, systemic / in life observation / body weight / offspring (pup) weight + systemic / in life observation / body weight / offspring (pup) …
# [34] = group: parental, systemic / pathology microscopic / liver / hyperplasia
# [35] = group: parental, systemic / pathology microscopic / liver / hyperplasia + systemic / pathology microscopic / liver / inflammation
# [36] = group: cholinesterase, cholinesterase / cholinesterase / cholinesterase / cholinesterase (che)
# [37] = group: cholinesterase, cholinesterase / cholinesterase / cholinesterase / cholinesterase (che) + cholinesterase / cholinesterase / cholinesterase / brain …
# [38] = group: offspring, developmental / offspring survival late / lactation index / lactation index + developmental / offspring survival late / [other] / [other] + …
# [39] = group: offspring, systemic / in life observation / clinical signs / no milk in stomach
# [40] = group: parental, systemic / in life observation / body weight / body weight gain + systemic / in life observation / clinical signs / hyperreflexitivity
# [41] = group: reproductive, reproductive / offspring survival early / litter size / litter size
# [42] = group: cholinesterase, cholinesterase / cholinesterase / cholinesterase / plasma cholinesterase (che)
# [43] = group: cholinesterase, cholinesterase / cholinesterase / cholinesterase / plasma cholinesterase (che) + cholinesterase / cholinesterase / cholinesterase / brain …
# [44] = group: systemic, systemic / pathology microscopic / pancreas / atrophy
# [45] = group: systemic, systemic / pathology microscopic / pancreas / atrophy + systemic / pathology microscopic / pancreas / adenoma + systemic / in life …
# [46] = group: cholinesterase, cholinesterase / cholinesterase / cholinesterase / brain cholinesterase (che) + cholinesterase / cholinesterase / cholinesterase / …
# [47] = group: systemic, systemic / pathology microscopic / intestine small / hyperplasia + systemic / in life observation / mortality / mortality + systemic / …
# [48] = group: systemic, systemic / pathology microscopic / intestine small / hyperplasia + systemic / pathology microscopic / bone marrow / hyperplasia
# [49] = group: cholinesterase, cholinesterase / cholinesterase / cholinesterase / erythrocyte cholinesterase (che) + cholinesterase / cholinesterase / cholinesterase / …
# [50] = group: reproductive, reproductive / reproductive performance / estrous cycle / abnormal
# [51] = group: systemic, systemic / organ weight / liver / absolute + systemic / organ weight / liver / relative to brain weight
# [52] = group: systemic, systemic / organ weight / liver / absolute + systemic / organ weight / liver / relative to brain weight + systemic / clinical chemistry / …
# [53] = group: cholinesterase, cholinesterase / cholinesterase / cholinesterase / plasma cholinesterase (che) + cholinesterase / cholinesterase / cholinesterase / …
# [54] = group: systemic, systemic / in life observation / body weight / body weight + systemic / in life observation / body weight / body weight gain + systemic / in…
structure (smiles),measurement,setting,value
COc1ccc(C(=CC(=O)N2CCOCC2)c2ccc(Cl)cc2)cc1OC [Dimethomorph],LEL,[1],977 mg/kg/day
same,LOAEL,[1],977 mg/kg/day
same,NEL,[1],96.8 mg/kg/day
same,NOAEL,[1],96.8 mg/kg/day
same,LEL,[2]; [21],2.9 mg/kg/day
same,NEL,[2]; [21],< 2.9 mg/kg/day
same,LOAEL,[2]; [22],> 73 mg/kg/day
same,NOAEL,[2]; [22],≥ 73 mg/kg/day
same,LEL,[3],57.7 mg/kg/day
same,LOAEL,[3],57.7 mg/kg/day
same,NEL,[3],11.9 mg/kg/day
same,NOAEL,[3],11.9 mg/kg/day
same,LOAEL,[4]; systemic / organ weight / prostate / absolute + systemic / organ weight / prostate / relative to body weight,44.6 mg/kg/day
same,LEL,[4]; [23],44.6 mg/kg/day
same,NEL,[4]; [23],14.7 mg/kg/day
same,NOAEL,[4]; [23],14.7 mg/kg/day
same,LEL,[5]; [24],46.3 mg/kg/day
same,LOAEL,[5]; [24],46.3 mg/kg/day
same,NEL,[5]; [25],11.3 mg/kg/day
same,NOAEL,[5]; [25],11.3 mg/kg/day
same,LEL,[6],43 mg/kg/day
same,LOAEL,[6],43 mg/kg/day
same,NEL,[6],15 mg/kg/day
same,NOAEL,[6],15 mg/kg/day
COc1cc(OC)nc(Oc2cccc(Oc3nc(OC)cc(OC)n3)c2C(=O)[O-])n1.[Na+] [Bispyribac-sodium],LOAEL,[7]; [26],724 mg/kg/day
same,NOAEL,[7]; [26],71.9 mg/kg/day
same,LEL,[7]; [27],8.1 mg/kg/day
same,NEL,[7]; [27],< 8.1 mg/kg/day
same,LEL,[8]; [28],100 mg/kg/day
same,LOAEL,[8]; [28],100 mg/kg/day
same,NEL,[8]; [29],10 mg/kg/day
same,NOAEL,[8]; [29],10 mg/kg/day
same,LOAEL,[9]; systemic / pathology microscopic / liver / hematopoietic cell proliferation granulocytic + systemic / in life observation / body weight / …,353 mg/kg/day
same,LEL,[9]; [30],1.4 mg/kg/day
same,NEL,[9]; [30],< 1.4 mg/kg/day
same,NOAEL,[9]; systemic / pathology microscopic / liver / hematopoietic cell proliferation granulocytic + systemic / pathology microscopic / liver / giant …,14.1 mg/kg/day
same,LEL,[10],194 mg/kg/day
same,LOAEL,[10],194 mg/kg/day
same,NEL,[10],10.9 mg/kg/day
same,NOAEL,[10],10.9 mg/kg/day
same,LEL,[11],600 mg/kg/day
same,LOAEL,[11],600 mg/kg/day
same,NEL,[11],100 mg/kg/day
same,NOAEL,[11],100 mg/kg/day
same,LEL,[12]; [31],699 mg/kg/day
same,LOAEL,[12]; [31],699 mg/kg/day
same,NEL,[12]; [32],68.6 mg/kg/day
same,NOAEL,[12]; [32],68.6 mg/kg/day
same,LEL,[13]; [33],759 mg/kg/day
same,LOAEL,[13]; [33],759 mg/kg/day
same,NEL,[13]; [33],75.7 mg/kg/day
same,NOAEL,[13]; [33],75.7 mg/kg/day
same,LEL,[13]; [34],75.7 mg/kg/day
same,LOAEL,[13]; [34],75.7 mg/kg/day
same,NEL,[13]; [35],1.5 mg/kg/day
same,NOAEL,[13]; [35],1.5 mg/kg/day
CCNP(=S)(OC)O/C(C)=C/C(=O)OC(C)C (stereo unspecified) [Propetamphos],LEL,[14]; [36],2.1 mg/kg/day
same,LOAEL,[14]; [36],2.1 mg/kg/day
same,NEL,[14]; [37],0.3 mg/kg/day
same,NOAEL,[14]; [37],0.3 mg/kg/day
same,LOAEL,[14]; [38],8 mg/kg/day
same,NOAEL,[14]; [38],3 mg/kg/day
same,LEL,[14]; [39],0.5 mg/kg/day
same,NEL,[14]; [39],< 0.5 mg/kg/day
same,LEL,"[14]; group: parental, systemic / in life observation / body weight / body weight gain",3.7 mg/kg/day
same,LOAEL,[14]; [40],7.1 mg/kg/day
same,NOAEL,[14]; [40],2.8 mg/kg/day
same,NEL,"[14]; group: parental, systemic / in life observation / body weight / body weight gain + systemic / in life observation / clinical signs / hyperreflexitivity + …",0.5 mg/kg/day
same,LEL,[14]; [41],0.5 mg/kg/day
same,NEL,[14]; [41],< 0.5 mg/kg/day
same,NOAEL,"[14]; group: reproductive, reproductive / reproductive performance / implantations / implantations + reproductive / reproductive performance / mating / mating",3.7 mg/kg/day
same,LOAEL,"[14]; group: reproductive, reproductive / reproductive performance / implantations / implantations + reproductive / reproductive performance / mating / mating + …",11.3 mg/kg/day
same,LEL,[15],0.083 mg/kg/day
same,LOAEL,[15],0.165 mg/kg/day
same,NEL,[15],< 0.083 mg/kg/day
same,NOAEL,[15],0.083 mg/kg/day
same,LEL,[16]; [42],0.632 mg/kg/day
same,LOAEL,[16]; [42],0.632 mg/kg/day
same,NEL,[16]; [43],0.376 mg/kg/day
same,NOAEL,[16]; [43],0.376 mg/kg/day
same,LEL,[16]; [44],0.689 mg/kg/day
same,LOAEL,[16]; [44],0.689 mg/kg/day
same,NEL,[16]; [45],0.412 mg/kg/day
same,NOAEL,[16]; [45],0.412 mg/kg/day
same,LEL,[17]; [46],1 mg/kg/day
same,LOAEL,[17]; [46],1 mg/kg/day
same,NEL,[17]; [46],0.05 mg/kg/day
same,NOAEL,[17]; [46],0.05 mg/kg/day
same,NEL,[17]; [47],1 mg/kg/day
same,NOAEL,[17]; [47],1 mg/kg/day
same,LEL,[17]; [48],6 mg/kg/day
same,LOAEL,[17]; [48],6 mg/kg/day
same,LEL,[18]; [49],0.59 mg/kg/day
same,LOAEL,[18]; [49],0.59 mg/kg/day
same,NEL,[18]; [49],0.13 mg/kg/day
same,NOAEL,[18]; [49],0.13 mg/kg/day
same,LEL,[18]; [50],3.39 mg/kg/day
same,LOAEL,[18]; [50],> 3.39 mg/kg/day
same,NEL,[18]; [50],0.67 mg/kg/day
same,NOAEL,[18]; [50],≥ 3.39 mg/kg/day
same,LEL,[18]; [51],0.59 mg/kg/day
same,LOAEL,[18]; [51],0.59 mg/kg/day
same,NEL,[18]; [52],0.13 mg/kg/day
same,NOAEL,[18]; [52],0.13 mg/kg/day
same,LEL,[19]; [53],1 mg/kg/day
same,LOAEL,[19]; [53],1 mg/kg/day
same,NEL,[19]; [53],< 1 mg/kg/day
same,NOAEL,[19]; [53],< 1 mg/kg/day
same,LOAEL,"[19]; group: systemic, systemic / in life observation / body weight / body weight + systemic / in life observation / body weight / body weight gain",59 mg/kg/day
same,LEL,[19]; [54],59 mg/kg/day
same,NEL,[19]; [54],28 mg/kg/day
same,NOAEL,[19]; [54],28 mg/kg/day
CC(=O)O.CC(=O)O.NC(=NCCCCCCN=C(N)/N=C(\N)Nc1ccc(Cl)cc1)/N=C(\N)Nc1ccc(Cl)cc1 [Chlorhexidine diacetate],LEL,[20],250 mg/kg/day
same,LOAEL,[20],250 mg/kg/day
same,NEL,[20],< 250 mg/kg/day
same,NOAEL,[20],< 250 mg/kg/day
